This is an account of results in patent publication US9765075B2, “Substituted bridged urea analogs as sirtuin modulators” (GLAXOSMITHKLINE LLC, priority 2013, dated 2017).

The target in the assay is T1, SIRT1 (Homo sapiens, UniProt Q96EB6).
T1 sequence (Q96EB6 1-747): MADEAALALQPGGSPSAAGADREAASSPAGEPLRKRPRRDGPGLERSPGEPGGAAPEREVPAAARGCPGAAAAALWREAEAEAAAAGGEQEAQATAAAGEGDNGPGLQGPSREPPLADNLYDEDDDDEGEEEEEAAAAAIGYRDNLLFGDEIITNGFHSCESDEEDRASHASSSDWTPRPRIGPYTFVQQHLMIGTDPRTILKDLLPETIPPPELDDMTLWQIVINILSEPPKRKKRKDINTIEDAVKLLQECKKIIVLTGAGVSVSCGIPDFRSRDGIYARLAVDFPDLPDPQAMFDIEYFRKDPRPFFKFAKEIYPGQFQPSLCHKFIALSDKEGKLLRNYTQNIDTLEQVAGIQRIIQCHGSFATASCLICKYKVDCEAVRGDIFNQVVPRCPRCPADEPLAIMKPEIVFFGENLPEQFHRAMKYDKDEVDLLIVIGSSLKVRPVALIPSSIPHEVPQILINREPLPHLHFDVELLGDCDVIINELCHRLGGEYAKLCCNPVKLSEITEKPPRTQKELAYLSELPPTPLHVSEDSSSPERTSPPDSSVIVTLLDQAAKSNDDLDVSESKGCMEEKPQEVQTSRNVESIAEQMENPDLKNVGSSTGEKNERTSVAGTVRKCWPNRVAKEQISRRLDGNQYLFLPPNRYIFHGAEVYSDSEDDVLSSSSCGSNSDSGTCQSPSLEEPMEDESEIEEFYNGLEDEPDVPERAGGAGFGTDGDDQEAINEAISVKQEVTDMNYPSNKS
Description: Trp mass spectrometry assay (SIRT1 activation). Conditions: Trp peptide substrate; for Tryp AVG EC1.5 (μM): concentration of test compound that results in 150% activation of SIRT1; for Emax: percent maximum fold activation of SIRT1, read-out: Tryp % Fold Act. The assay is classed as biochemical. A digest of the protocol: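 Activation is expressed as EC1.5, the concentration raising activity 50% above DMSO control, and as maximum percent of control. Mass-spec readout was OAADPR or deacetylated Trp peptide after a formic-acid-quenched 25-min, 25 °C reaction: 10 nM bacterially expressed His-SIRT1, 0.5 μM acetyl-p53-derived peptide, 120 μM NAD+, pH 7.5 HEPES with […].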

Turning to `O=C(Nc1ccncn1)N1c2nc(-c3cncc(C(F)(F)F)c3)ccc2N2CCC[C@H]1C2` [Example 393], the “Tryp AVG EC1.5 (μM)” value was “A (EC1.5<1 μM)” and the Emax is ≥ 150%.
In the same order, the values of `COc1cc(NC(=O)N2c3nc(-c4cncc(C(F)(F)F)c4)ccc3N3CCC[C@H]2C3)ncn1` [Example 394] are “A (EC1.5<1 μM)” and ≥ 150%.
As for `Cn1cc(-c2ccc3c(n2)N(C(=O)Nc2cccnc2)[C@H]2CCN3C2)cn1` [Example 395], the “Tryp AVG EC1.5 (μM)” value is given as “B (EC1.5 1-25 μM)” and the Emax was ≥ 150%.
On to `COc1cc(-c2cccc(Cl)c2)nc2c1N1CC[C@@H](C1)N2C(=O)Nc1cnccn1` [Example 396], for which the “Tryp AVG EC1.5 (μM)” value was “A (EC1.5<1 μM)” and the Emax was ≥ 150%.
As to `O=C(Nc1cnccn1)N1c2nc(-c3cc(F)cc(F)c3)ccc2N2CC[C@H]1C2` [Example 397], the “Tryp AVG EC1.5 (μM)” value was “C (EC1.5>25 μM)” and the Emax was ≥ 150%.
For `COc1ncc(-c2ccc3c(n2)N(C(=O)Nc2cnccn2)[C@H]2CCN3C2)c(OC)n1` [Example 398], the “Tryp AVG EC1.5 (μM)” value is on record as “B (EC1.5 1-25 μM)” and the Emax was ≥ 150%.
On to `COc1ccc(-c2ccc3c(n2)N(C(=O)Nc2cnccn2)[C@H]2CCN3C2)cn1` [Example 399], for which the “Tryp AVG EC1.5 (μM)” value is listed as “B (EC1.5 1-25 μM)” and the Emax is ≥ 150%.
As for `O=C(Nc1cnccn1)N1c2nc(-c3cncc(F)c3)ccc2N2CC[C@H]1C2` [Example 400], the “Tryp AVG EC1.5 (μM)” value was “B (EC1.5 1-25 μM)” and the Emax was ≥ 150%.
For `O=C(Nc1ccc(F)cn1)N1c2nc(-c3cncc(Cl)c3)ccc2N2CCC[C@H]1C2` [Example 401], the “Tryp AVG EC1.5 (μM)” value is reported as “A (EC1.5<1 μM)” and the Emax was ≥ 150%.
Consider `Cc1nc(NC(=O)N2c3nc(-c4cncc(Cl)c4)ccc3N3CCC[C@H]2C3)sc1C` [Example 402], for which the “Tryp AVG EC1.5 (μM)” value is given as “A (EC1.5<1 μM)” and the Emax is ≥ 150%.
`CN(C)c1cccc(-c2ccc3c(n2)N(C(=O)Nc2cnccn2)[C@H]2CCCN3C2)c1` [Example 403]: the “Tryp AVG EC1.5 (μM)” value is “A (EC1.5<1 μM)” and the Emax was ≥ 150%.
Consider `COc1cc(NC(=O)N2c3nc(-c4cncc(F)c4)ccc3N3CCC[C@H]2C3)ncn1` [Example 404], for which the “Tryp AVG EC1.5 (μM)” value is recorded as “A (EC1.5<1 μM)” and the Emax is ≥ 150%.
`COc1cc(NC(=O)N2c3nc(-c4cncc(Cl)c4)ccc3N3CCC[C@H]2C3)ncn1` [Example 405]: the “Tryp AVG EC1.5 (μM)” value is listed as “A (EC1.5<1 μM)” and the Emax is ≥ 150%.
Regarding `O=C(Nc1ccccn1)N1c2nc(-c3cncc(Cl)c3)ccc2N2CCC[C@H]1C2` [Example 406], the “Tryp AVG EC1.5 (μM)” value is on record as “A (EC1.5<1 μM)” and the Emax is ≥ 150%.
In the case of `O=C(Nc1cccnc1)N1c2nc(-c3cccc(Cl)c3)ccc2N2CCC[C@H]1C2` [Example 407], the “Tryp AVG EC1.5 (μM)” value is “A (EC1.5<1 μM)” and the Emax is ≥ 150%.
In the same order, the values of `COc1cc(NC(=O)N2c3nc(-c4cccc(Cl)c4)ccc3N3CCC[C@H]2C3)ncn1` [Example 408] are “A (EC1.5<1 μM)” and ≥ 150%.
`O=C(Nc1ccncc1)N1c2nc(-c3cccc(Cl)c3)ccc2N2CCC[C@H]1C2` [Example 409]: the “Tryp AVG EC1.5 (μM)” value is listed as “A (EC1.5<1 μM)” and the Emax is ≥ 150%.
Turning to `O=C(Nc1cncc(F)c1)N1c2nc(-c3ccnc(N4CCC(C(F)(F)F)C4)c3)ccc2N2CC[C@H]1C2` (some centres unmarked) [Example 410], the “Tryp AVG EC1.5 (μM)” value is recorded as “A (EC1.5<1 μM)” and the Emax was ≥ 150%.
In the same order, the values of `O=C(Nc1cncc(F)c1)N1c2nc(-c3cncc(C(F)(F)F)c3)ccc2N2CCC[C@H]1C2` [Example 411] are “A (EC1.5<1 μM)” and ≥ 150%.
In the same order, the values of `O=C(Nc1cccnn1)N1c2nc(-c3cncc(C(F)(F)F)c3)ccc2N2CCC[C@H]1C2` [Example 412] are “A (EC1.5<1 μM)” and ≥ 150%.
For the compound `Cc1noc(C)c1-c1ccc2c(n1)N(C(=O)Nc1cnccn1)[C@H]1CCN2C1` [Example 413], the “Tryp AVG EC1.5 (μM)” value was “C (EC1.5>25 μM)” and the Emax was < 150%.
As for `Cn1nccc1-c1ccc2c(n1)N(C(=O)Nc1cnccn1)[C@H]1CCN2C1` [Example 414], the “Tryp AVG EC1.5 (μM)” value is on record as “B (EC1.5 1-25 μM)” and the Emax was ≥ 150%.
With `CS(=O)(=O)c1cccc(-c2ccc3c(n2)N(C(=O)Nc2cnccn2)[C@H]2CCN3C2)c1` [Example 415], the “Tryp AVG EC1.5 (μM)” value was “A (EC1.5<1 μM)” and the Emax is ≥ 150%.
`O=C(Nc1cnccn1)N1c2nc(-c3cc(F)c(F)c(F)c3)ccc2N2CC[C@H]1C2` [Example 416]: the “Tryp AVG EC1.5 (μM)” value was “C (EC1.5>25 μM)” and the Emax was < 150%.
Regarding `O=C(Nc1cnccn1)N1c2nc(-c3cncc(Cl)c3)ccc2N2CCC[C@H]1C2` [Example 417], the “Tryp AVG EC1.5 (μM)” value is reported as “A (EC1.5<1 μM)” and the Emax was ≥ 150%.
Turning to `CS(=O)(=O)Nc1cccc(-c2ccc3c(n2)N(C(=O)Nc2cnccn2)[C@H]2CCN3C2)c1` [Example 418], the “Tryp AVG EC1.5 (μM)” value is listed as “B (EC1.5 1-25 μM)” and the Emax was ≥ 150%.
In the case of `N#Cc1cc(-c2ccc3c(n2)N(C(=O)Nc2cnccn2)[C@H]2CCN3C2)ccc1F` [Example 419], the “Tryp AVG EC1.5 (μM)” value is on record as “A (EC1.5<1 μM)” and the Emax was ≥ 150%.
Take `O=C(Nc1ccncn1)N1c2nc(N3CCCNCC3)ccc2N2CCC[C@H]1C2` [Example 420]: the “Tryp AVG EC1.5 (μM)” value is recorded as “C (EC1.5>25 μM)” and the Emax was < 150%.
As for `O=C(Nc1ccncc1F)N1c2nc(-c3cccc(Cl)c3)ccc2N2CCC[C@H]1C2` [Example 421], the “Tryp AVG EC1.5 (μM)” value is reported as “A (EC1.5<1 μM)” and the Emax is ≥ 150%.
For `O=C(Nc1ccncc1)N1c2nc(-c3ccnc(N4CC[C@H](F)C4)c3)ccc2N2CC[C@H]1C2` [Example 422], the “Tryp AVG EC1.5 (μM)” value is recorded as “A (EC1.5<1 μM)” and the Emax is ≥ 150%.
As for `O=C(Nc1cnccn1)N1c2nc(-c3ccnc(N4CCC(F)(F)C4)c3)ccc2N2CC[C@H]1C2` [Example 423], the “Tryp AVG EC1.5 (μM)” value is on record as “A (EC1.5<1 μM)” and the Emax is ≥ 150%.
In the same order, the values of `COc1cc(NC(=O)N2c3nc(-c4ccnc(N5CC[C@@H](F)C5)c4)ccc3N3CC[C@H]2C3)ncn1` [Example 424] are “B (EC1.5 1-25 μM)” and ≥ 150%.
On to `O=C(Nc1ccc(F)cn1)N1c2nc(-c3ccnc(N4CCC(F)(F)C4)c3)ccc2N2CC[C@H]1C2` [Example 425], for which the “Tryp AVG EC1.5 (μM)” value is recorded as “A (EC1.5<1 μM)” and the Emax is ≥ 150%.
Take `N#Cc1ccccc1-c1ccc2c(n1)N(C(=O)Nc1cccnn1)[C@H]1CCCN2C1` [Example 426]: the “Tryp AVG EC1.5 (μM)” value is “B (EC1.5 1-25 μM)” and the Emax is ≥ 150%.
In the same order, the values of `Cc1nc(NC(=O)N2c3nc(-c4cncc(C(F)(F)F)c4)ccc3N3CCC[C@H]2C3)sc1C` [Example 427] are “A (EC1.5<1 μM)” and ≥ 150%.
On to `O=C(CCCC[C@@H]1SCC2NC(=O)NC21)NCCCCCC(=O)NCc1ccc(NC(=O)N2c3nc(-c4cccc(C(F)(F)F)c4)ccc3N3CC[C@H]2C3)cc1` (some centres unmarked) [Example 428], for which the “Tryp AVG EC1.5 (μM)” value is given as “A (EC1.5<1 μM)” and the Emax is ≥ 150%.
Take `NCc1ccc(NC(=O)N2c3nc(-c4cccc(C(F)(F)F)c4)ccc3N3CC[C@H]2C3)cc1` [Example 429]: the “Tryp AVG EC1.5 (μM)” value was “B (EC1.5 1-25 μM)” and the Emax is ≥ 150%.
In the same order, the values of `O=C(CCCC[C@@H]1SCC2NC(=O)NC21)NCCCCCC(=O)NCc1ccc(NC(=O)N2c3nc(-c4cccc(C(F)(F)F)c4)ccc3N3CCC[C@H]2C3)cc1` (some centres unmarked) [Example 430] are “A (EC1.5<1 μM)” and ≥ 150%.
For `O=C(Nc1ccc(F)cn1)N1c2nc(-c3cncc(F)c3)ccc2N2CCC[C@H]1C2` [Example 431], the “Tryp AVG EC1.5 (μM)” value was “A (EC1.5<1 μM)” and the Emax was ≥ 150%.
Consider `O=C(Nc1cnccn1)N1c2nc(-c3cncc(F)c3)ccc2N2CCC[C@H]1C2` [Example 432], for which the “Tryp AVG EC1.5 (μM)” value was “B (EC1.5 1-25 μM)” and the Emax is ≥ 150%.
As for `CS(=O)(=O)N1CCCN(c2ccc3c(n2)N(C(=O)Nc2ccncn2)[C@H]2CCCN3C2)CC1` [Example 433], the “Tryp AVG EC1.5 (μM)” value is “B (EC1.5 1-25 μM)” and the Emax was ≥ 150%.
In the same order, the values of `CC(=O)N1CCCN(c2ccc3c(n2)N(C(=O)Nc2ccncn2)[C@H]2CCCN3C2)CC1` [Example 434] are “C (EC1.5>25 μM)” and < 150%.
As for `O=C(Nc1cnccn1)N1c2nc(-c3ccc(Cl)c(C(F)(F)F)c3)ccc2N2CC[C@H]1C2` [Example 435], the “Tryp AVG EC1.5 (μM)” value is given as “A (EC1.5<1 μM)” and the Emax is ≥ 150%.
